Results as given in ChEMBL document CHEMBL1949644, “Synthesis and SAR optimization of quinazolin-4(3H)-ones as poly(ADP-ribose)polymerase-1 inhibitors” (Eur J Med Chem, 2012).

Assays:
[1] = target: T1, Poly [ADP-ribose] polymerase 1 (Homo sapiens, UniProt P09874); assay: Inhibition of PARP1 using TACS-Sapphire substrate for 30 mins by colorimetry
[2] = target: T1, Poly [ADP-ribose] polymerase 1; assay: Inhibition of PARP1 at 25 uM using TACS-Sapphire substrate for 30 mins by colorimetry
[3] = target: T1, Poly [ADP-ribose] polymerase 1; assay: Ratio of quinazoline-4(3H)-one IC50 to compound IC50 for PARP1
MEF [4] = assay: Antiproliferative activity against MEF cells harboring Brca1 deletion mutant at exon 11 assessed as cell viability after 72 hrs by MTT assay; type: functional, cell-based; details: Mus musculus
MEF [5] = assay: Ratio of IC50 for wild type MEF cells to MEF cells harboring Brca1 deletion mutant at exon 11; type: functional, Mus musculus
MEF [6] = assay: Antiproliferative activity against wild type MEF cells assessed as cell viability after 72 hrs by MTT assay; type: cell-based; details: Mus musculus

T1 sequence (P09874 whole entry): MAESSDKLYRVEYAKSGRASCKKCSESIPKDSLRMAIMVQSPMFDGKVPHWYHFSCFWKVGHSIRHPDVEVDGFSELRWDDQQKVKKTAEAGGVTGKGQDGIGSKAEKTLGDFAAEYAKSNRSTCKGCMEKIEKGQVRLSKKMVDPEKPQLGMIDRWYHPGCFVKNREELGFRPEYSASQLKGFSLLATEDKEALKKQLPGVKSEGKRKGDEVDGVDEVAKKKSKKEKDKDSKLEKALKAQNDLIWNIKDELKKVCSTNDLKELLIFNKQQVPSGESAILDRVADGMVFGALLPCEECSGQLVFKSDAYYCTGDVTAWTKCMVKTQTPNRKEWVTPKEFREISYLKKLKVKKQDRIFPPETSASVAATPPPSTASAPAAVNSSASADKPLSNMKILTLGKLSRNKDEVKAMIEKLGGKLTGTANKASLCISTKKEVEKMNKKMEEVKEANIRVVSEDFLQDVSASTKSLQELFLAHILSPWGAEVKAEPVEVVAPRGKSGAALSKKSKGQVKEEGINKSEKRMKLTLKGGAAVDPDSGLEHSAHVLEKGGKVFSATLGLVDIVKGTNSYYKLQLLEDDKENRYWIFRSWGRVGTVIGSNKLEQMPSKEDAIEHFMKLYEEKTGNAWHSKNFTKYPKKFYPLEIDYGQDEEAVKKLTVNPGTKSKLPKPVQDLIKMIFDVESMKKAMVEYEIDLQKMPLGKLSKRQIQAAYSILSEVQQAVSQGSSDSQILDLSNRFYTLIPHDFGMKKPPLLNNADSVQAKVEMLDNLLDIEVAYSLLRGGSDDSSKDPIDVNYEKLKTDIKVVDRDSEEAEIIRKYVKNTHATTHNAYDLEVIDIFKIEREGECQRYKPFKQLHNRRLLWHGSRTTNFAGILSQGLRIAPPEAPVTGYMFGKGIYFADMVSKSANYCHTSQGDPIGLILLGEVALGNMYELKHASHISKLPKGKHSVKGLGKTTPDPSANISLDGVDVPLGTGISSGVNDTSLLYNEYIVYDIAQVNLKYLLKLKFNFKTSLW

SMILES	IC50 [1] [µM]	inhibition [2] [%]	also measured
O=c1[nH]cnc2c(F)cccc12	18.8	–	–
Oc1ncnc2cc(Cl)ccc12	–	< 40	–
O=[N+]([O-])c1ccc2ncnc(O)c2c1	–	40	–
Cc1cc(C)c2nc(C)[nH]c(=O)c2c1	13.2	–	–
O=c1[nH]cnc2cccc(Cl)c12	3.19	–	–
Nc1ccc2c(=O)[nH]cnc2c1	–	< 40	–
Cc1nc2c(Cl)cccc2c(=O)[nH]1	2.65	–	–
CN(C)CC(=O)Nc1ccc2[nH]c(=O)c3ccccc3c2c1 [PJ34]	–	–	IC50 (MEF [4]): 13.2 µM; IC50 (MEF [6]): 19.8 µM
O=c1[nH]cnc2cccc(F)c12	7.04	–	–
O=[N+]([O-])c1cccc2c(O)ncnc12	–	< 40	–
Cc1ccc2c(=O)[nH]cnc2c1	–	40	–
Cc1ccc2nc[nH]c(=O)c2c1	25	40	–
Cc1cccc2c(=O)[nH]cnc12	1.32	–	Ratio IC50 [3]: 4
O=c1[nH]cnc2c(C(F)(F)F)cccc12	–	40	–
COc1cc2nc[nH]c(=O)c2cc1OC	–	< 40	–
Nc1cccc2c(=O)[nH]cnc12	0.76	–	IC50 (MEF [4]): > 600 µM; IC50 (MEF [6]): > 600 µM
O=c1[nH]cnc2c(Cl)cccc12	5.65	–	–

The next lines start with results.

IC50 [1] [µM]	inhibition [2] [%]	SMILES	also measured
–	< 40	O=c1[nH]cnc2cc(F)c(F)cc12	–
–	< 40	O=c1[nH]cnc2cc([N+](=O)[O-])ccc12	–
1.39	–	Cc1cc(C)c2nc[nH]c(=O)c2c1	Ratio IC50 [3]: 4
0.4	–	Cc1nc2c(N)cccc2c(=O)[nH]1	IC50 (MEF [4]): 49 µM; Ratio IC50 (MEF [5]): >10; IC50 (MEF [6]): > 500 µM
–	40	O=c1[nH]cnc2ccc(I)cc12	–
–	40	Cc1cccc2nc[nH]c(=O)c12	–
5.31	–	Cc1nc2cccc(C)c2c(=O)[nH]1	–
0.49	–	Cc1nc(O)c2cccc(C)c2n1	IC50 (MEF [4]): 15.1 µM; Ratio IC50 (MEF [5]): 12; IC50 (MEF [6]): 177 µM
1.18	–	Cc1nc2cccc(Cl)c2c(=O)[nH]1	–
7.5	–	O=c1[nH]cnc2cc(C(F)(F)F)ccc12	–
–	40	O=c1[nH]cnc2ccc(O)cc12	–
1.97	–	Cc1nc2cccc(F)c2c(=O)[nH]1	–
25	–	O=c1[nH]cnc2ccc([N+](=O)[O-])cc12	–
9.01	–	O=c1[nH]cnc2ccc(F)cc12	–
–	40	Nc1ccc2nc[nH]c(=O)c2c1	–
–	< 40	O=c1[nH]cnc2cc(F)ccc12	–
11	–	O=c1[nH]cnc2ccc(Cl)cc12	–
